Experimental data published in patent US9682995B2, “Amino-substituted isothiazoles” (BAYER PHARMA AKTIENGESELLSCHAFT, priority 2013, dated 2017).

Key:
Test in all cases: Kinase Profiling (KINOMEscan)
Type in all cases: binding
[1] = target: 456 kinases (of these 395 non-mutant kinases) (Homo sapiens, UniProt O43293); details: DAPK3; 10 μM
[2] = target: 456 kinases (of these 395 non-mutant kinases) (Homo sapiens, UniProt P04049); details: RAF1; 10 μM
[3] = target: 456 kinases (of these 395 non-mutant kinases) (Homo sapiens, UniProt Q9UPZ9); details: ICK; 10 μM
[4] = target: 456 kinases (of these 395 non-mutant kinases) (Homo sapiens, UniProt Q99759); details: MAP3K3; 10 μM
[5] = target: 456 kinases (of these 395 non-mutant kinases) (Homo sapiens, UniProt P35968); details: VEGFR2; 10 μM
[6] = target: 456 kinases (of these 395 non-mutant kinases) (Homo sapiens, UniProt Q92630); details: DYRK2; 10 μM
[7] = target: 456 kinases (of these 395 non-mutant kinases) (Homo sapiens, UniProt Q13237); details: PRKG2; 10 μM
[8] = target: 456 kinases (of these 395 non-mutant kinases) (Homo sapiens, UniProt Q9NYL2); details: ZAK; 10 μM
[9] = target: 456 kinases (of these 395 non-mutant kinases) (Homo sapiens, UniProt Q15759); details: p38-beta; 10 μM
[10] = target: 456 kinases (of these 395 non-mutant kinases) (Homo sapiens, UniProt Q9BXA7); details: TSSK1B; 10 μM
[11] = target: 456 kinases (of these 395 non-mutant kinases) (Homo sapiens, UniProt P16591); details: FER; 10 μM
[12] = target: 456 kinases (of these 395 non-mutant kinases) (Homo sapiens, UniProt Q07912); details: TNK2; 10 μM
[13] = target: 456 kinases (of these 395 non-mutant kinases) (Homo sapiens, UniProt P42681); details: TXK; 10 μM
[14] = target: 456 kinases (of these 395 non-mutant kinases) (Homo sapiens, UniProt P00519, F317I); details: 10 μM
[15] = target: 456 kinases (of these 395 non-mutant kinases) (Homo sapiens, UniProt P53355); details: DAPK1; 10 μM
[16] = target: 456 kinases (of these 395 non-mutant kinases) (Homo sapiens, UniProt P43403); details: ZAP70; 10 μM
[17] = target: 456 kinases (of these 395 non-mutant kinases) (Homo sapiens, UniProt P37173); details: TGFBR2; 10 μM
[18] = target: 456 kinases (of these 395 non-mutant kinases) (Homo sapiens, UniProt P10721, A829P); details: KIT(A829P); 10 μM
[19] = target: 456 kinases (of these 395 non-mutant kinases) (Homo sapiens, UniProt Q16816); details: PHKG1; 10 μM
[20] = target: 456 kinases (of these 395 non-mutant kinases) (Homo sapiens, UniProt Q12866); details: MERTK; 10 μM
[21] = target: 456 kinases (of these 395 non-mutant kinases) (Homo sapiens, UniProt O96017); details: CHEK2; 10 μM
[22] = target: 456 kinases (of these 395 non-mutant kinases) (Homo sapiens, UniProt O43283); details: LZK; 10 μM
[23] = target: 456 kinases (of these 395 non-mutant kinases) (Homo sapiens, UniProt P15056, V600E); details: BRAF(V600E); 10 μM
[24] = target: 456 kinases (of these 395 non-mutant kinases) (Homo sapiens, UniProt Q99755); details: PIP5K1A; 10 μM
[25] = target: 456 kinases (of these 395 non-mutant kinases) (Homo sapiens, UniProt Q9HC98); details: NEK6; 10 μM
[26] = target: 456 kinases (of these 395 non-mutant kinases) (Homo sapiens, UniProt Q5S007); details: LRRK2; 10 μM
[27] = target: 456 kinases (of these 395 non-mutant kinases) (Homo sapiens, UniProt Q13873); details: BMPR2; 10 μM
[28] = target: 456 kinases (of these 395 non-mutant kinases) (Homo sapiens, UniProt Q13557); details: CAMK2D; 10 μM
[29] = target: 456 kinases (of these 395 non-mutant kinases) (Homo sapiens, UniProt P46734); details: MEK3; 10 μM
[30] = target: 456 kinases (of these 395 non-mutant kinases) (Homo sapiens, UniProt Q96RR4); details: CAMKK2; 10 μM
[31] = target: 456 kinases (of these 395 non-mutant kinases) (Homo sapiens, UniProt Q16566); details: CAMK4; 10 μM
[32] = target: 456 kinases (of these 395 non-mutant kinases) (Homo sapiens, UniProt Q00532); details: CDKL1; 10 μM

456 kinases (of these 395 non-mutant kinases) (Homo sapiens, UniProt Q9NYL2), sequence (Q9NYL2 2-800 limits assumed, change not shown): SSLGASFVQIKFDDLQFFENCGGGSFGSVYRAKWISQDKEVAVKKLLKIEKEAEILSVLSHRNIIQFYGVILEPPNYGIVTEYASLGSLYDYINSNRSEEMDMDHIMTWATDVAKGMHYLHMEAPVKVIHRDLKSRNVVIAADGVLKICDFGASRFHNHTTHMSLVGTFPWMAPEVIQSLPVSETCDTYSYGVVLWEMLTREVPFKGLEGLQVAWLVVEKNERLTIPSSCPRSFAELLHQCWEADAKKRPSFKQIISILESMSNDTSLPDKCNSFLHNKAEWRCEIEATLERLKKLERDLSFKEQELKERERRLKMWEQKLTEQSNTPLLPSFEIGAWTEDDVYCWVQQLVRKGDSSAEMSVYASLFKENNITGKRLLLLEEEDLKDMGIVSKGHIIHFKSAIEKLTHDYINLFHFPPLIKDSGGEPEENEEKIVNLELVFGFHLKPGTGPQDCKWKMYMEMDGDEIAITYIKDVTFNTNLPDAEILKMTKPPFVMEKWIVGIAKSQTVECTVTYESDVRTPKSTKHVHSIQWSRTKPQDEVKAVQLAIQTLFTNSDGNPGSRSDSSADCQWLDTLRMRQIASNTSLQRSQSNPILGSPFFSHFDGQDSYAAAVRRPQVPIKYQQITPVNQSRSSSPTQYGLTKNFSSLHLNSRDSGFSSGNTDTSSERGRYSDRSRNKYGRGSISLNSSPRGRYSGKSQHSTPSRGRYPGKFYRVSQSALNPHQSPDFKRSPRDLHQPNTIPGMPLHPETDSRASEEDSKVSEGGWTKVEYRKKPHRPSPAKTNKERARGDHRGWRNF
456 kinases (of these 395 non-mutant kinases) (Homo sapiens, UniProt Q12866), sequence (Q12866 21-999 limits assumed, change not shown): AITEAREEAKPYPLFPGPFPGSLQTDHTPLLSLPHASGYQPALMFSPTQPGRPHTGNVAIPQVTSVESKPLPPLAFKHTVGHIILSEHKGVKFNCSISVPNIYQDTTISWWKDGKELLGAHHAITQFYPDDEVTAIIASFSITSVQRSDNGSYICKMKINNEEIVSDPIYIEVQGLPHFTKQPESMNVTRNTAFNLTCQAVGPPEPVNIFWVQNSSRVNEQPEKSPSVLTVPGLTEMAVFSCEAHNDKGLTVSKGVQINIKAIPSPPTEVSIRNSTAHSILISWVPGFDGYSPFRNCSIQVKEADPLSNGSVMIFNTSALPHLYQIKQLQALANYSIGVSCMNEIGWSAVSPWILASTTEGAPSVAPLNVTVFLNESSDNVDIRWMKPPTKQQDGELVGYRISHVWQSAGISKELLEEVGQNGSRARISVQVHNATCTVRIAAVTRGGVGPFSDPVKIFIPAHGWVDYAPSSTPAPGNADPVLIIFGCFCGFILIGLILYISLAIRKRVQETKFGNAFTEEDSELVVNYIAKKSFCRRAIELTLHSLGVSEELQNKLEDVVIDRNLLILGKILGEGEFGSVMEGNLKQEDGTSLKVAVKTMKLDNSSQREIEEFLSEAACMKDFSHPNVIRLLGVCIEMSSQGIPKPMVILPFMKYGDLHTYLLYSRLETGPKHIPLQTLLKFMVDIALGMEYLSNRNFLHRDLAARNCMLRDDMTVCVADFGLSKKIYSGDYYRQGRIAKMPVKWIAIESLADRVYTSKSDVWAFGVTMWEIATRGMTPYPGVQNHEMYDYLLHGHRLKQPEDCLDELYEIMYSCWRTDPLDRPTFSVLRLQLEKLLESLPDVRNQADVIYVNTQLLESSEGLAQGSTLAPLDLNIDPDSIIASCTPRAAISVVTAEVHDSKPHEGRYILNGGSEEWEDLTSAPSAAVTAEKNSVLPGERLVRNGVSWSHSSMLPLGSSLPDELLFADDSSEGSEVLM
456 kinases (of these 395 non-mutant kinases) (Homo sapiens, UniProt Q13237), sequence (Q13237 2-762 limits assumed, change not shown): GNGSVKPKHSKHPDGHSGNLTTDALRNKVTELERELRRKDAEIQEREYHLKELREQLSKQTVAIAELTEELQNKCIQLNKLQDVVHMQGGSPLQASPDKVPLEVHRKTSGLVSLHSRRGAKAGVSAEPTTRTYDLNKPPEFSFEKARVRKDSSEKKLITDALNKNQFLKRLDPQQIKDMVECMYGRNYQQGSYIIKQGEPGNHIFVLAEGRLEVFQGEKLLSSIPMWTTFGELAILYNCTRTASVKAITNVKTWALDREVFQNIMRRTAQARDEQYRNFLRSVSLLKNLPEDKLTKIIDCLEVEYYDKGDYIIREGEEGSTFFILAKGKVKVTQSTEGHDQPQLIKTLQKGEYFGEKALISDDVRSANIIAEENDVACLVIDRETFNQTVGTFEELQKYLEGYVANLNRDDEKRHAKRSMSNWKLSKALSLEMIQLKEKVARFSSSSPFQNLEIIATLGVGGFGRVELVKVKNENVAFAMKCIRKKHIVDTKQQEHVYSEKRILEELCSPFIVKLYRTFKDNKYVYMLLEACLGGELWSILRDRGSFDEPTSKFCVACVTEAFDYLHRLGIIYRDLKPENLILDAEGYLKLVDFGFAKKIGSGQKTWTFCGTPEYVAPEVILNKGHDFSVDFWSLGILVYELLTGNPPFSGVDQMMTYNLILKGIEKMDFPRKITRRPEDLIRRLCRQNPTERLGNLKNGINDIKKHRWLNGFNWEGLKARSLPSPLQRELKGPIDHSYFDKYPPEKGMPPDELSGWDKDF
456 kinases (of these 395 non-mutant kinases) (Homo sapiens, UniProt Q13557), sequence (Q13557 2-499 limits assumed, change not shown): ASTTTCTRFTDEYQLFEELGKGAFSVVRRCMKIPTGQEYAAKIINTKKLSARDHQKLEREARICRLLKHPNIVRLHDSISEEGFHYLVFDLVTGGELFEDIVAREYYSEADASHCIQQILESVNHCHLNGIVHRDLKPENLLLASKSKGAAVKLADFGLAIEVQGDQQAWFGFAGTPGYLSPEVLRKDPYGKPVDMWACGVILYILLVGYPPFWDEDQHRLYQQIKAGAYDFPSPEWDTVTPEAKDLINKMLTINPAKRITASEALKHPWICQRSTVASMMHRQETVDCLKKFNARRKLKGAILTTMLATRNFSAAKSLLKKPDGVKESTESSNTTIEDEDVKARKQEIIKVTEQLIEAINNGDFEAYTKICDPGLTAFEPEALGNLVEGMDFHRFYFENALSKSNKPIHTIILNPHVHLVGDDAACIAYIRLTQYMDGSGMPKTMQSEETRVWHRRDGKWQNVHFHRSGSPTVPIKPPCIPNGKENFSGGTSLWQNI
456 kinases (of these 395 non-mutant kinases) (Homo sapiens, UniProt P37173), sequence (P37173 23-567 limits assumed, stated change not applied): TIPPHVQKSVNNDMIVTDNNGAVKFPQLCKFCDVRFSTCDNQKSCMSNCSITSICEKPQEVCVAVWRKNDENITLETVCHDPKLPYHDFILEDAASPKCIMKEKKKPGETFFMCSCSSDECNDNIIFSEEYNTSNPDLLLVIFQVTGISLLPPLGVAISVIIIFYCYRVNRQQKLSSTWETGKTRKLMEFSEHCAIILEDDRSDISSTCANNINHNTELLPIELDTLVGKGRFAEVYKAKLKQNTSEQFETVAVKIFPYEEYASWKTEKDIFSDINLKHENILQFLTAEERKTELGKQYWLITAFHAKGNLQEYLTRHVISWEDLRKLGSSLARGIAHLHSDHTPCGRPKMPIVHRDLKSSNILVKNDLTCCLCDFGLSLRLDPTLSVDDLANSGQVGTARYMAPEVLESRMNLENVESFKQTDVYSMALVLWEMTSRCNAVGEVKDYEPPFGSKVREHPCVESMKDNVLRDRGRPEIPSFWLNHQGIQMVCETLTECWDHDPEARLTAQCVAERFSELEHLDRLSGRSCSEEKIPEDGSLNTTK
456 kinases (of these 395 non-mutant kinases) (Homo sapiens, UniProt Q96RR4), sequence (Q96RR4 2-588 limits assumed, change not shown): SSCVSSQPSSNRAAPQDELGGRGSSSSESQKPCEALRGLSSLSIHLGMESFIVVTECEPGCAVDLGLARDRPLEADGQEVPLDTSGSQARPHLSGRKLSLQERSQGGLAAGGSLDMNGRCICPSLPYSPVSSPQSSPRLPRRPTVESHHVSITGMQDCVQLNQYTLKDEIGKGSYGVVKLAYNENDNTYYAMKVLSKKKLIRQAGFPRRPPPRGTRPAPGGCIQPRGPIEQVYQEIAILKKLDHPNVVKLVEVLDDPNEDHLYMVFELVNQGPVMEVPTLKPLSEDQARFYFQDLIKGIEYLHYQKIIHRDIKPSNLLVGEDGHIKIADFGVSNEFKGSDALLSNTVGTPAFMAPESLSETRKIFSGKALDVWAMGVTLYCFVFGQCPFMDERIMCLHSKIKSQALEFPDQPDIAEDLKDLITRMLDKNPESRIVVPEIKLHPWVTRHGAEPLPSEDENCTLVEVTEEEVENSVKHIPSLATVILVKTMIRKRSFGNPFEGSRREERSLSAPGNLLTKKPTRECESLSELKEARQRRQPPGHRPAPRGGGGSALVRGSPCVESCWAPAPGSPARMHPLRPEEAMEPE
456 kinases (of these 395 non-mutant kinases) (Homo sapiens, UniProt P15056, V600E), sequence (P15056 2-766 V600E limits assumed): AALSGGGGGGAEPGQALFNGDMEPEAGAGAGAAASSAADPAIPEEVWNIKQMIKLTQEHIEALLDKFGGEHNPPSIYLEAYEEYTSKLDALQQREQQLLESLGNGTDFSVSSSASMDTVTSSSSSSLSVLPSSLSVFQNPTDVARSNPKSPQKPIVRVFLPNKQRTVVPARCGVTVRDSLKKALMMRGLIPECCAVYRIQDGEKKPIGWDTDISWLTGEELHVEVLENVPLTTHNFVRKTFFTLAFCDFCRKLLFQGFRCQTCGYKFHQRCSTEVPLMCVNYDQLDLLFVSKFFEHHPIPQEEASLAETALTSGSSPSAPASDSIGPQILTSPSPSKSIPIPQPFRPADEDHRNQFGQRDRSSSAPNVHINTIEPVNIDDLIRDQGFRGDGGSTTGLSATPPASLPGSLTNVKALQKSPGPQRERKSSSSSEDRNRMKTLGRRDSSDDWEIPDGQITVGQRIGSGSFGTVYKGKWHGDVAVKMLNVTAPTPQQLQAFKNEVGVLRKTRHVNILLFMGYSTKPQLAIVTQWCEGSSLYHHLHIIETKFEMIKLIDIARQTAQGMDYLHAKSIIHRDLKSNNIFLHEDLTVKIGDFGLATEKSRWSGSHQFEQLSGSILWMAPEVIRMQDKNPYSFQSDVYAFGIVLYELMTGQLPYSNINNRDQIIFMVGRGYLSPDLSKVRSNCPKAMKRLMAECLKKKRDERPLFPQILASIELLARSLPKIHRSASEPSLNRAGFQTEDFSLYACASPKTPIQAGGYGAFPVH

CCc1ccccc1NC(=O)c1c(C)nsc1Nc1cnc2cc(F)ccc2n1 [Example 20, N-(2-Ethylphenyl)-5-[(6-fluoroquinoxalin-2-yl)amino]-3-methyl-1,2-thiazole-4-carboxamide]
% Ctrl @ 10 μM [1]: 72 % Ctrl
% Ctrl @ 10 μM [2]: 100 % Ctrl
% Ctrl @ 10 μM [3]: 100 % Ctrl
% Ctrl @ 10 μM [4]: 100 % Ctrl
% Ctrl @ 10 μM [5]: 100 % Ctrl
% Ctrl @ 10 μM [6]: 96 % Ctrl
% Ctrl @ 10 μM [7]: 100 % Ctrl
% Ctrl @ 10 μM [8]: 78 % Ctrl
% Ctrl @ 10 μM [9]: 100 % Ctrl
% Ctrl @ 10 μM [10]: 100 % Ctrl
% Ctrl @ 10 μM [11]: 100 % Ctrl
% Ctrl @ 10 μM [12]: 93 % Ctrl
% Ctrl @ 10 μM [13]: 71 % Ctrl
% Ctrl @ 10 μM ([14]; ABL1(F317I)-nonphosphorylated): 100 % Ctrl
% Ctrl @ 10 μM ([14]; ABL1(F317I)-phosphorylated): 86 % Ctrl
% Ctrl @ 10 μM [15]: 88 % Ctrl
% Ctrl @ 10 μM [16]: 88 % Ctrl
% Ctrl @ 10 μM [17]: 100 % Ctrl
% Ctrl @ 10 μM [18]: 94 % Ctrl
% Ctrl @ 10 μM [19]: 70 % Ctrl
% Ctrl @ 10 μM [20]: 98 % Ctrl
% Ctrl @ 10 μM [21]: 100 % Ctrl
% Ctrl @ 10 μM [22]: 88 % Ctrl
% Ctrl @ 10 μM [23]: 100 % Ctrl
% Ctrl @ 10 μM [24]: 100 % Ctrl
% Ctrl @ 10 μM [25]: 100 % Ctrl
% Ctrl @ 10 μM [26]: 95 % Ctrl
% Ctrl @ 10 μM [27]: 100 % Ctrl
% Ctrl @ 10 μM [28]: 89 % Ctrl
% Ctrl @ 10 μM [29]: 100 % Ctrl
% Ctrl @ 10 μM [30]: 74 % Ctrl
% Ctrl @ 10 μM [31]: 100 % Ctrl
% Ctrl @ 10 μM [32]: 100 % Ctrl
